Data taken from patent publication US4415577A, “Bis-sparteine derivatives and method of using same in therapy” (Kali-Chemie Pharma GmbH, priority 1980, dated 1983).
Counter-ions that a name gives are not always drawn.

How the values were obtained:
[1] = acute toxicity (LD50) in mice after oral administration; type: in vivo, mouse (male NMRI); settings: mouse, in vivo; male NMRI-mice, oral, 50% mortality on the 7th day; read-out: LD50 per os
Procedure: (§1) The acute toxicity of the compounds is determined in male NMRI-mice (body weight range 18-22 g) after oral (p.o) administration. The LD50 is defined as that dose in μmol/kg which causes a 50% mortality rate of the test animals on the 7th day after application. The calculation of the LD50 is carried out by probitanalysis (see L. Cavalli-Sforza, Grundbegriffe der Biometric, Gustav Fischer Verlag Stuttgart (1964).

[2] = test system: aconitin-induced arrhythmic effects; test: aconitin-induced arrhythmia test (Aconitine test), oral; type: in vivo, rat (male Wistar); settings: for minimal effective dose: Rattus norvegicus, po, 3 h, read-out: Aconitine test, effective dose per os
Procedure: The influence of the novel compound on aconitin-induced arrhythmic effects is determined on male Wistar rats (weighing 280-350 g) which are treated with an aconitin infusion according to the method of Raschak (M. Raschak, Arzneim. Forschung (Drug Research) 25 (1975) pp. 639-641). The effective dose which is given in μmol/kg, is the dose which cause a significant difference in time between the starting of the aconitin-induced arrhythmic effect in animals treated with the active ingredient and the starting of this aconitin-induced effect in an untreated control group of animals. In order to be considered effective the dose must cause a significant prolongation of the period until the aconitin-induced arrhythmic effects start, and it must be effective against at least two of the aconitin-induced arrhythmic symptoms (extrasystoles, ventricular flutter, ventricular tachycardia). The test compound is applied orally inform of a 2% suspension of tylose ^R MH 50 three hours before the aconitin-infusion is started.
As a standard dose one tenth of the LD50 in mice is used. If a test compound is effective at this dose, the dose is reduced in a following test. The statistical t-test method according to Student using logarithmic values of the effective values is used for significance testing (see Lothar Sachs, Statistische Auswertungsmethoden, Springer Verlag 1969).

isolated left atria = test: prolongation of the functional refractory period (FRP), double stimulus method of Govier; set-up: species or system guinea pig (female albino-pirbright-white); settings: Cavia porcellus, 0.3 h; isolated left atria of female guinea pigs, 18 minutes after application; read-out: FRP 125% (concentration causing prolongation of the functional refractory period to 125%)
male NMRI-mice = test: acute toxicity (LD50) in mice after oral administration; type: in vivo, mouse (male NMRI); settings: comparison in words
Procedure: as §1

C1CCN2C[C@@H]3C[C@@H]([C@@H]([C@@H]4[C@@H]5C[C@@H](CN6CCCC[C@H]56)[C@@H]5CCCCN45)N4CCCC[C@@H]34)[C@H]2C1 [17S,17'S-bissparteine ditartrate]
LD50 at 168 h [1]: > 1900 µmol/kg
minimal effective dose [2]: 33 µmol/kg
EC (125%) (isolated left atria): 5 µM

C1CCN2C[C@@H]3C[C@@H]([C@@H]([C@@H]4[C@@H]5C[C@@H](CN6CCCC[C@H]56)[C@@H]5CCCCN45)N4CCCC[C@@H]34)[C@H]2C1 [17S,17'S-bissparteine]
toxicity compared with known sparteine derivatives (male NMRI-mice): less toxic
effectiveness compared with the known tested sparteine compounds ([2]; conclusion in words from table 1): more effective than the known tested sparteine compounds
effect after oral application, after a period of 3 hours ([2]; oral, after 3 hours, same conditions for known compounds): retains its good effect even after a period of 3 hours

CCCCCC1C2CC(CN3CCCCC23)C2CCCCN21 (stereo not drawn) [Pentyl sparteine tartrate]
LD50 at 168 h [1]: 1800 µmol/kg
minimal effective dose [2]: > 180 µmol/kg
EC (125%) (isolated left atria): 9 µM

C1CCN2C[C@@H]3C[C@@H](CN4CCCC[C@@H]34)[C@H]2C1 [Sparteine sulfate]
LD50 at 168 h [1]: 540 µmol/kg
minimal effective dose [2]: > 54 µmol/kg
EC (125%) (isolated left atria): 34 µM
